Results from ChEMBL document CHEMBL4428130, “Novel benzoquinoline derivatives via unpredicted condensation of ethyl propiolate and naphthylamines: Synthesis and topoisomerase inhibition activity” (2016).
Activity calls are given as the source filed them. The calls are words filed in the database; no cut-off is given here.

Key:
HeLa = experiment: Growth inhibition of human HeLa cells after 72 hrs by trypan blue assay; format: functional
HL-60 = experiment: Growth inhibition of human HL60 cells after 72 hrs by trypan blue assay; format: functional; details: HL-60, 72 h
HepG2 = experiment: Growth inhibition of human HepG2 cells after 72 hrs by trypan blue assay; format: functional; details: HepG2, 72 h
[1] = target: DNA topoisomerase 2-alpha (Homo sapiens) (UniProt P11388); experiment: Poison activity at human recombinant topoisomerase-2 alpha expressed in Escherichia coli assessed as generation of linear DNA using supercoiled pBR322 DNA at 8 uM after 60 mins by ethidium bromide staining based agarose gel electrophoresis
Sequence of DNA topoisomerase 2-alpha (Homo sapiens) (P11388 whole entry): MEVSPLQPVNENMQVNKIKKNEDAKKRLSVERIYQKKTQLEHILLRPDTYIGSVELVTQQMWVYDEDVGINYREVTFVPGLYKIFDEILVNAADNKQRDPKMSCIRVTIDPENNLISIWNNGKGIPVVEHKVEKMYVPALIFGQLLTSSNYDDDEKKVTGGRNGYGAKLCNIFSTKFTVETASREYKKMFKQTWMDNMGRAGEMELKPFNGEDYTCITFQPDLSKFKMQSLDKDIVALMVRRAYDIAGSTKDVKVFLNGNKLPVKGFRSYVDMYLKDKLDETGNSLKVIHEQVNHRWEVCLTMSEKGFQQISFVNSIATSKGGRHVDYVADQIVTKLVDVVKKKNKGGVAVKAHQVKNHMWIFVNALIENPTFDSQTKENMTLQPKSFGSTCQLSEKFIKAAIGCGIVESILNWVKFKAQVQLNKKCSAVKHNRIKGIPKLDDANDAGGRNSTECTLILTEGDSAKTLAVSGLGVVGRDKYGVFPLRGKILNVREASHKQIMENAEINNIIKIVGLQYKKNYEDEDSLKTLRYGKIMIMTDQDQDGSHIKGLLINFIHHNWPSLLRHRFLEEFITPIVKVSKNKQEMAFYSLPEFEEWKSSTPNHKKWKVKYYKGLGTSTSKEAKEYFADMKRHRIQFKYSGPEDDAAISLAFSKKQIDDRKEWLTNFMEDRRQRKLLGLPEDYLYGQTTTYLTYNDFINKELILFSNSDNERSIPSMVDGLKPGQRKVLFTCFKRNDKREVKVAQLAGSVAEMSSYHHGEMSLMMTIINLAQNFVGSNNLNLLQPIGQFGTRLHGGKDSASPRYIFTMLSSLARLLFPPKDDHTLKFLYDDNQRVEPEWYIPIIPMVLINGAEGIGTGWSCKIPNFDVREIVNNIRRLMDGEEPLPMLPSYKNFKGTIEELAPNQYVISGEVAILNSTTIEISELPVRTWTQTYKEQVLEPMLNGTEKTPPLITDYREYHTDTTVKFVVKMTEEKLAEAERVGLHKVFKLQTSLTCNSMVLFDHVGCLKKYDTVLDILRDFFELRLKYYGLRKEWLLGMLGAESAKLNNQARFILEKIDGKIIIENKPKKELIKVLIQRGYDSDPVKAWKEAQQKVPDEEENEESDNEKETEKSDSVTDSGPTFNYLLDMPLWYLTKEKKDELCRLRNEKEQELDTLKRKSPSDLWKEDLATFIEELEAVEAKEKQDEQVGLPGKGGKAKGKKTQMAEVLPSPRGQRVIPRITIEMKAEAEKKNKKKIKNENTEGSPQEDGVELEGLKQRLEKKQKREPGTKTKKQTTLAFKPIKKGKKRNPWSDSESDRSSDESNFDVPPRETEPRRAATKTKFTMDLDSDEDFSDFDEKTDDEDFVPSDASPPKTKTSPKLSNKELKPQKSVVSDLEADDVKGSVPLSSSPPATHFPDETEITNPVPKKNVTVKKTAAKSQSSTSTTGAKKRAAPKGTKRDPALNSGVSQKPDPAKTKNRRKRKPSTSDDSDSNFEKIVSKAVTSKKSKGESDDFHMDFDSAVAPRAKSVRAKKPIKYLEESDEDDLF

[2] = target: DNA topoisomerase 2-alpha (Homo sapiens) (UniProt P11388); experiment: Inhibition of human recombinant topoisomerase-2 alpha expressed in Escherichia coli assessed as reduction in supercoiled pBR322 DNA relaxation at 8 uM after 60 mins by ethidium bromide staining based agarose gel electrophoresis
[3] = target: DNA topoisomerase 2-alpha (Homo sapiens) (UniProt P11388); experiment: Inhibition of human recombinant topoisomerase-2 alpha expressed in Escherichia coli assessed as reduction in supercoiled pBR322 DNA relaxation after 60 mins by ethidium bromide staining based agarose gel electrophoresis
[4] = target: DNA topoisomerase 2-alpha (Homo sapiens) (UniProt P11388); experiment: Poison activity at human recombinant topoisomerase-2 alpha expressed in Escherichia coli assessed as generation of linear DNA using supercoiled pBR322 DNA at 100 to 200 uM after 60 mins by ethidium bromide staining based agarose gel electrophoresis
Salmon testes DNA = experiment: Binding affinity to Salmon testis DNA assessed as drug-DNA complex formation at drug:DNA ratio of 0.08 at 310 to 380 nanometer by linear flow dichroism method; format: nucleic-acid assay; details: Salmonidae

Structure (SMILES)	GI50 (HeLa)	GI50 (HL-60)	GI50 (HepG2)	Activity [1]	inhibition [2]	inhibition [3]	Activity [4]	Activity (Salmon testes DNA)
CCOC(=O)c1cnc2ccc3ccccc3c2c1	> 50 µM	≥ 50 µM	≥ 50 µM					
CCOC(=O)c1cnc2c(ccc3ccccc32)c1	> 50 µM	> 50 µM	≥ 50 µM					
COc1cc(NS(C)(=O)=O)ccc1Nc1c2ccccc2nc2ccccc12				Active	Active			
O=C(NCCN1CCOCC1)c1cnc2c(ccc3ccccc32)c1	> 50 µM	> 50 µM	> 50 µM					
CN(C)CCN1CCN(C(=O)c2cnc3c(ccc4ccccc43)c2)CC1	> 50 µM	> 50 µM	> 50 µM					
CN(C)CCN1CCN(C(=O)c2cnc3ccc4ccccc4c3c2)CC1	> 50 µM	> 50 µM	> 50 µM					
CN(C)CCNC(=O)c1cnc2c(ccc3ccccc32)c1	> 50 µM	29.8 µM	32.2 µM					
CN(C)CCNC(=O)c1cnc2c(ccc3cc4c(cc32)OCCO4)c1	> 50 µM	30 µM	> 50 µM					
CCOC(=O)c1cnc2c(ccc3cc4c(cc32)OCCO4)c1	> 50 µM	> 50 µM	> 50 µM					
O=C(NCCN1CCOCC1)c1cnc2c(ccc3cc4c(cc32)OCCO4)c1	> 50 µM	32.5 µM	> 50 µM					
O=C(NCCN1CCOCC1)c1cnc2ccc3ccccc3c2c1	> 50 µM	> 50 µM	> 50 µM					
CN(C)CCNC(=O)c1cnc2ccc3ccccc3c2c1	> 50 µM	24.1 µM	27.8 µM			Dose-dependent effect	inactive	Active
CN(C)CCN1CCN(C(=O)c2cnc3c(ccc4cc5c(cc43)OCCO5)c2)CC1	> 50 µM	33.8 µM	39.4 µM					
